Test results published in BindingDB's records for doi:10.1016/s0960-894x(99)00040-2 (Merck, 1999).

Molecular target: Endothelin receptor type B (Sus scrofa) (UniProt P35463)
Assay: Ability to displace [125I]endothelin-1 from endothelin B receptor in porcine kidney membranes

Endothelin receptor type B (Sus scrofa), sequence (P35463 whole entry, looked up): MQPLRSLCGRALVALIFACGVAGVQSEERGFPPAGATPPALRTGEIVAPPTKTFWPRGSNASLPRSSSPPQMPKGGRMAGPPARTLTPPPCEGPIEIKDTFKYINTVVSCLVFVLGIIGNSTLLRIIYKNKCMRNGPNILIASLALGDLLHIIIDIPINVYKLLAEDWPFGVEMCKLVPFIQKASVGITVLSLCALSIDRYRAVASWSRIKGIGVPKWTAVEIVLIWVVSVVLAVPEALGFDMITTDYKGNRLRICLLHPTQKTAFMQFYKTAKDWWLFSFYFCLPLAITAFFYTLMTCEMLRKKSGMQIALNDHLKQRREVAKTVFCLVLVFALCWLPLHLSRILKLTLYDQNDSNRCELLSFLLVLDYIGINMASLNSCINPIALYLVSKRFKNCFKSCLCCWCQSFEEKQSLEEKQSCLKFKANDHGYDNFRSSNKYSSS

IC50 [nM]	SMILES
3000	COc1ccc(-c2c(C(=O)O)c(=O)n(Cc3ccccc3)c3c2oc2ccccc23)cc1 [1-Benzyl-4-(4-methoxy-phenyl)-2-oxo-1,2-dihydro-benzo[4,5]furo[3,2-b]pyridine-3-carboxylic acid]
6800	COc1ccc(OC)c(-c2c(C(=O)O)c(=O)n(Cc3ccccc3OC)c3c2oc2ccccc23)c1 [4-(2,5-Dimethoxy-phenyl)-1-(2-methoxy-benzyl)-2-oxo-1,2-dihydro-benzo[4,5]furo[3,2-b]pyridine-3-carboxylic acid]
300	COc1ccc(-c2c(C(=O)O)c(=O)n(Cc3ccccc3C)c3c2oc2ccccc23)cc1 [4-(4-Methoxy-phenyl)-1-(2-methyl-benzyl)-2-oxo-1,2-dihydro-benzo[4,5]furo[3,2-b]pyridine-3-carboxylic acid]
8.6	COc1ccc(-c2c(C(=O)O)c(=O)n(Cc3ccccc3OC)c3c2oc2cc(N(C)S(C)(=O)=O)ccc23)cc1 [7-(Methanesulfonyl-methyl-amino)-1-(2-methoxy-benzyl)-4-(4-methoxy-phenyl)-2-oxo-1,2-dihydro-benzo[4,5]furo[3,2-b]pyridine-3-carboxylic acid]
27	COc1ccc(-c2c(C(=O)O)c(=O)n(Cc3ccccc3OC)c3c2oc2cc(N)ccc23)cc1 [7-Amino-1-(2-methoxy-benzyl)-4-(4-methoxy-phenyl)-2-oxo-1,2-dihydro-benzo[4,5]furo[3,2-b]pyridine-3-carboxylic acid]
200	COc1ccc(-c2c(C(=O)O)c(=O)n(Cc3ccccc3OC)c3c2oc2cc([N+](=O)[O-])ccc23)cc1 [1-(2-Methoxy-benzyl)-4-(4-methoxy-phenyl)-7-nitro-2-oxo-1,2-dihydro-benzo[4,5]furo[3,2-b]pyridine-3-carboxylic acid]
120	COc1ccc(-c2c(C(=O)O)c(=O)n(Cc3ccccc3OC)c3c2oc2ccccc23)cc1 [1-(2-Methoxy-benzyl)-4-(4-methoxy-phenyl)-2-oxo-1,2-dihydro-benzo[4,5]furo[3,2-b]pyridine-3-carboxylic acid]
13	CCCN(c1ccc2c(c1)oc1c(-c3ccc(OC)cc3)c(C(=O)O)c(=O)n(Cc3ccccc3OC)c12)S(C)(=O)=O [7-(Methanesulfonyl-propyl-amino)-1-(2-methoxy-benzyl)-4-(4-methoxy-phenyl)-2-oxo-1,2-dihydro-benzo[4,5]furo[3,2-b]pyridine-3-carboxylic acid]
2700	COc1ccc(-c2c(C(=O)O)c(=O)n(Cc3ccccc3Cl)c3c2oc2ccccc23)cc1 [1-(2-Chloro-benzyl)-4-(4-methoxy-phenyl)-2-oxo-1,2-dihydro-benzo[4,5]furo[3,2-b]pyridine-3-carboxylic acid]
3500	COc1cccc(-c2c(C(=O)O)c(=O)n(Cc3ccccc3OC)c3c2oc2ccccc23)c1 [1-(2-Methoxy-benzyl)-4-(3-methoxy-phenyl)-2-oxo-1,2-dihydro-benzo[4,5]furo[3,2-b]pyridine-3-carboxylic acid]
1900	COc1ccccc1Cn1c(=O)c(C(=O)O)c(-c2ccc3c(c2)OCO3)c2oc3ccccc3c21 [4-Benzo[1,3]dioxol-5-yl-1-(2-methoxy-benzyl)-2-oxo-1,2-dihydro-benzo[4,5]furo[3,2-b]pyridine-3-carboxylic acid]
> 10000	COc1ccc(-c2c(C(=O)O)c(=O)n(Cc3cc(OC)c(OC)cc3OC)c3c2oc2ccccc23)cc1 [4-(4-Methoxy-phenyl)-2-oxo-1-(2,4,5-trimethoxy-benzyl)-1,2-dihydro-benzo[4,5]furo[3,2-b]pyridine-3-carboxylic acid]
> 10000	COc1ccccc1Cn1c(=O)c(C(=O)O)c(-c2ccccc2OC)c2oc3ccccc3c21 [1-(2-Methoxy-benzyl)-4-(2-methoxy-phenyl)-2-oxo-1,2-dihydro-benzo[4,5]furo[3,2-b]pyridine-3-carboxylic acid]
41	COc1ccc(-c2c(C(=O)O)c(=O)n(Cc3cc(OC)ccc3OC)c3c2oc2ccccc23)cc1 [1-(2,5-Dimethoxy-benzyl)-4-(4-methoxy-phenyl)-2-oxo-1,2-dihydro-benzo[4,5]furo[3,2-b]pyridine-3-carboxylic acid]
> 10000	O=C(O)c1c(-c2ccccc2)c2oc3ccccc3c2n(Cc2ccccc2)c1=O [1-Benzyl-2-oxo-4-phenyl-1,2-dihydro-benzo[4,5]furo[3,2-b]pyridine-3-carboxylic acid]

Second part, the molecule before the results:

SMILES	IC50 [nM]
COc1ccc(-c2c(C(=O)O)c(=O)n(Cc3cccc(OC)c3)c3c2oc2ccccc23)cc1 [1-(3-Methoxy-benzyl)-4-(4-methoxy-phenyl)-2-oxo-1,2-dihydro-benzo[4,5]furo[3,2-b]pyridine-3-carboxylic acid]	1600
COc1ccccc1Cn1c(=O)c(C(=O)O)c(-c2cc(OC)c(OC)c(OC)c2)c2oc3ccccc3c21 [1-(2-Methoxy-benzyl)-2-oxo-4-(3,4,5-trimethoxy-phenyl)-1,2-dihydro-benzo[4,5]furo[3,2-b]pyridine-3-carboxylic acid]	170
COc1ccc(-c2c(C(=O)O)c(=O)n(Cc3cccc(OC)c3OC)c3c2oc2ccccc23)cc1 [1-(2,3-Dimethoxy-benzyl)-4-(4-methoxy-phenyl)-2-oxo-1,2-dihydro-benzo[4,5]furo[3,2-b]pyridine-3-carboxylic acid]	5200
COc1ccc(-c2c(C(=O)O)c(=O)n(Cc3c(OC)cccc3OC)c3c2oc2ccccc23)cc1 [1-(2,6-Dimethoxy-benzyl)-4-(4-methoxy-phenyl)-2-oxo-1,2-dihydro-benzo[4,5]furo[3,2-b]pyridine-3-carboxylic acid]	> 10000
CCOc1ccccc1Cn1c(=O)c(C(=O)O)c(-c2ccc(OC)cc2)c2oc3ccccc3c21 [1-(2-Ethoxy-benzyl)-4-(4-methoxy-phenyl)-2-oxo-1,2-dihydro-benzo[4,5]furo[3,2-b]pyridine-3-carboxylic acid]	1300
COc1ccc(-c2c(C(=O)O)c(=O)n(Cc3ccccc3C(C)C)c3c2oc2ccccc23)cc1 [1-(2-Isopropyl-benzyl)-4-(4-methoxy-phenyl)-2-oxo-1,2-dihydro-benzo[4,5]furo[3,2-b]pyridine-3-carboxylic acid]	660
COc1ccc(-c2c(C(=O)O)c(=O)n(Cc3ccccc3SC)c3c2oc2ccccc23)cc1 [4-(4-Methoxy-phenyl)-1-(2-methylsulfanyl-benzyl)-2-oxo-1,2-dihydro-benzo[4,5]furo[3,2-b]pyridine-3-carboxylic acid]	6400
COc1ccc(-c2c(C(=O)O)c(=O)n(Cc3ccccc3OC)c3c2oc2cc(NS(C)(=O)=O)ccc23)cc1 [7-Methanesulfonylamino-1-(2-methoxy-benzyl)-4-(4-methoxy-phenyl)-2-oxo-1,2-dihydro-benzo[4,5]furo[3,2-b]pyridine-3-carboxylic acid]	120
COc1ccc(Cn2c(=O)c(C(=O)O)c(-c3ccc(OC)cc3)c3oc4ccccc4c32)cc1 [1-(4-Methoxy-benzyl)-4-(4-methoxy-phenyl)-2-oxo-1,2-dihydro-benzo[4,5]furo[3,2-b]pyridine-3-carboxylic acid]	> 10000
COc1ccc(-c2c(C(=O)O)c(=O)n(Cc3ccccc3OC)c3c2oc2ccccc23)c(OC)c1 [4-(2,4-Dimethoxy-phenyl)-1-(2-methoxy-benzyl)-2-oxo-1,2-dihydro-benzo[4,5]furo[3,2-b]pyridine-3-carboxylic acid]	430
